These compounds were tested against T1, human neutrophil elastase (HNE) (Homo sapiens, UniProt P08246) (assay: Potency (IC50 determination) against human neutrophil elastase, chromogenic substrate N-methoxysuccinyl-ala-ala-pro-val-pNA, 405 nm). Details: pH 7.7, 7 min incubation at room temperature.
T1 sequence (P08246 30-267): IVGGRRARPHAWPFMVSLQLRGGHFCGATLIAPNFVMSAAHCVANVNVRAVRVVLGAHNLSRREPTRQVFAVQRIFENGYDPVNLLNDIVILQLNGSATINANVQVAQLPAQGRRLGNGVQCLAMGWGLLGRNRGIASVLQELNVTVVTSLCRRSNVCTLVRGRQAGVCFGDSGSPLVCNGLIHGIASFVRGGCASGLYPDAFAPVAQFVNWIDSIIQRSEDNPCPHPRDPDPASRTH
Type: biochemical
Procedure: A) 0.075M sodium phosphate, 20% dimethyl sulfoxide (DMSO),pH 7.7=substrate and inhibitor buffer
B) 0.075M sodium phosphate no DMSO,pH7.7=inhibitor buffer
C) 10 mM human neutrophil elastase (HNE) substrate=N-methoxysuccinyl-ala-ala-pro-val-pNA in DMSO
D) 0.01 sodium acetate, pH 5.5=enzyme buffer (storage)
E) HNE (1 mg) dissolved in 1 mL of […] for storage at -20° C.
Make a 10 mM stock of the inhibitor in DMSO. Dilute an aliquot (10 μL) up to 1.0 mL in reagent A (100 μM). Serially dilute 100 μL of the 100 μM in reagent A. Apply 100 μL of the diluted material to the wells of a 96-well plate. Dilute an aliquot of reagent F 1:150 in reagent D, apply 50 μL aliquots to the indicator wells and incubate 7 minutes at room temperature.
The HNE substrate solution is made by taking 100 μl of reagent C into 500 μL of reagent A and 400 μL of reagent B. After the 7 minutes of incubation, the substrate (50 μL) is applied to each well. The HNE catalyzed reaction is then monitored spectrophotometrically at 405 nm using an ELISA plate reader machine (UVMAX, Molecular Devices) which processes the raw data with an on-board kinetics program. The enzyme activity is plotted against different inhibitor concentrations and IC50 value is determined by using a curve fitting software program.

Structure (SMILES) | IC50 [nM]
CCC(C(=O)Oc1ccc(SC)cc1)c1ccc(C(CC)C(=O)Oc2ccc(SC)cc2)cc1 (stereo not drawn) [Compound 1, Bis(4-Methylmercaptophenyl)2'-(1,4-phenylene)dibutyrate] | 8440
CCC(C(=O)Oc1ccc([S+](C)[O-])cc1)c1ccc(C(CC)C(=O)Oc2ccc([S+](C)[O-])cc2)cc1 (stereo not drawn) [Compound 2] | 224
CCC(C(=O)Oc1ccc(S(C)(=O)=O)cc1)c1ccc(C(CC)C(=O)Oc2ccc(S(C)(=O)=O)cc2)cc1 (stereo not drawn) [Compound 3] | 62
CCC(C(=O)Oc1ccc(SCC(C)(C)C(=O)O)cc1)c1ccc(C(CC)C(=O)Oc2ccc(SCC(C)(C)C(=O)O)cc2)cc1 (stereo not drawn) [Compound 4] | 120
CCC(C(=O)Oc1ccc([S+]([O-])CC(C)(C)C(=O)O)cc1)c1ccc(C(CC)C(=O)Oc2ccc([S+]([O-])CC(C)(C)C(=O)O)cc2)cc1 (stereo not drawn) [Compound 5] | 40
CCC(C(=O)Oc1ccc(S(=O)(=O)CC(C)(C)C(=O)O)cc1)c1ccc(C(CC)C(=O)Oc2ccc(S(=O)(=O)CC(C)(C)C(=O)O)cc2)cc1 (stereo not drawn) [Compound 6] | 28
CCC(C(=O)Oc1ccc([S+]([O-])C(C)(C)C(=O)O)cc1)c1ccc(C(CC)C(=O)Oc2ccc([S+]([O-])C(C)(C)C(=O)O)cc2)cc1 (stereo not drawn) [Compound 8] | 74
CCC(C(=O)Oc1ccc(S(=O)(=O)C(C)(C)C(=O)O)cc1)c1ccc(C(CC)C(=O)Oc2ccc(S(=O)(=O)C(C)(C)C(=O)O)cc2)cc1 (stereo not drawn) [Compound 9] | 37
CC(C)(CSc1ccc(OC(=O)C(C)(C)c2ccc(C(C)(C)C(=O)Oc3ccc(SCC(C)(C)C(=O)O)cc3)cc2)cc1)C(=O)O [Compound 10] | 253
CC(C)(C[S+]([O-])c1ccc(OC(=O)C(C)(C)c2ccc(C(C)(C)C(=O)Oc3ccc([S+]([O-])CC(C)(C)C(=O)O)cc3)cc2)cc1)C(=O)O (stereo not drawn) [Compound 11] | 23
CC(C)(C(=O)Oc1ccc(SCC(=O)O)cc1)c1ccc(C(C)(C)C(=O)Oc2ccc(SCC(=O)O)cc2)cc1 [Compound 13] | 835
CC(C)(C(=O)Oc1ccc(S(=O)(=O)CC(=O)O)cc1)c1ccc(C(C)(C)C(=O)Oc2ccc(S(=O)(=O)CC(=O)O)cc2)cc1 [Compound 15] | 77
CCC(C(=O)Oc1ccc(SCC(C)(C)C(=O)O)cc1)c1cccc(C(CC)C(=O)Oc2ccc(SCC(C)(C)C(=O)O)cc2)c1 (stereo not drawn) [Compound 19] | 198
CCC(C(=O)Oc1ccc(S(=O)(=O)CC(C)(C)C(=O)O)cc1)c1cccc(C(CC)C(=O)Oc2ccc(S(=O)(=O)CC(C)(C)C(=O)O)cc2)c1 (stereo not drawn) [Compound 21] | 36
CCC(C(=O)Oc1ccnc(SC)n1)c1ccc(C(CC)C(=O)Oc2ccnc(SC)n2)cc1 (stereo not drawn) [Compound 28] | 64
